Laboratory results as given in patent US9051309B2, “3,5-disubstituted-1,3,4-oxadiazol-2(3H)-ones and compositions and methods for controlling nematode pests” (Monsanto Technology LLC, priority 2013, dated 2015).
Marks after values point to notes of the source that are not given here.

How the values were obtained:
[1] = tested on: Meloidogyne incognita nematodes; assay: Miniaturized greenhouse nematicidal efficacy assay on cucumber seedlings in sand vials (root gall rating); details: 500 M. incognita eggs, harvest 10 to 12 days after inoculation, average of triplicate ratings
Procedure: A miniaturized greenhouse assay was conducted to study the effects of several 3,5-disubstituted-1,3,4-oxadiazol-2(3H)-one compounds on Meloidogyne incognita nematodes.
Cucumber seeds were sprouted for 3 days in moist paper towels. Acceptable sprouts were 3 to 4 cm long, with several lateral roots just emerging.
Each test solution was evaluated in triplicate. Dry sand (10 mL) was added to each vial. Seedlings were planted by tilting the vial and laying the seedling in the correct orientation so that the cotyledons were just above the sand, and then tilting back to cover the radicles with sand. A sample of the test solution (3.3 mL) was then added to each vial, and the vials were placed in racks under fluorescent light banks. The vials were inoculated two days after planting by adding 500 vermiform M. incognita eggs to each vial in deionized or spring water (50 μL). The vials were then kept under the fluorescent lamps at ambient room temperature and watered as needed with deionized water (1 mL), usually twice during duration of test.
Harvest of the cucumber plants was performed 10 to 12 days after inoculation by washing sand off the roots. A root gall rating was assigned using the following Gall rating scale (Gall: % root mass galled): 0=0-5%; 1=6-20%; 2=21-50%; and 3=51-100%.
Comparative solutions comprising other commercially available nematicidal compounds were also evaluated as controls.

root knot nematode (RKN) [2] = assay: RKN greenhouse soil assay on cucumber plants (7 day longevity test); assay type: in vivo; details: inoculated 7 days after application, root galling rated 14 days after egg inoculation, galling reduction relative to control blank
Procedure: (§1) First, a concentrate was prepared by dissolving 2 milligrams of the test compound in 2 mL of an acetone solvent. Test solutions were then prepared by combining an appropriate amount of the concentrate with an aqueous surfactant solution comprising TRITON X100 (0.05%).
Cucumber seeds were planted in a sandy soil mixture in two inch square plastic pots. When the cotyledons were fully opened and just as the first leaf began to emerge, usually 7 days after planting, a nematicidal test solution was applied to each pot. Five milliliters of the appropriate chemical solution was pipetted to the media surface, making sure to avoid contact with the base of the plant. Immediately following chemical application, using a mist nozzle, the pot surface was wetted sufficiently to saturate the pot, effectively watering the test solution into the soil.
Seven days following application of the test solution, each pot was inoculated with root knot nematode (RKN) eggs. A nematode egg slurry was prepared by adding RKN nematode eggs to distilled water to create a concentration of 1000 vermiform eggs […] of water. […]
The cucumber plants were rated for root galling 14 days after the egg inoculation. […] A commercially available nematicide, fenamiphos, was also evaluated for comparison.

[3] = tested on: soybean cyst nematode (SCN); assay: SCN greenhouse sand assay on soybean plants; assay type: in vivo; details: SCN eggs about four hours after application, rated 28 days after egg inoculation
Procedure: as §1
A similar experiment was conducted with regard to control of soybean cyst nematode (SCN) on soybean plants. Soybean seeds were planted in a media consisting of 80% sand and 20% silt loam soil (v/v) in two inch square plastic pots. […] Approximately four hours after application of the nematicidal test solution, the nematode soybean cyst nematode (SCN) eggs were applied using the procedure described above. The soybean plants were rated for root galling 28 days after the egg inoculation.

root knot nematode (RKN) [4] = assay: Seed treatment on cucumber for RKN control; assay type: in vivo; details: 1000 root knot eggs five days after planting, galling rated 14 days after inoculation, versus untreated blank
Procedure: The excess of 30% by weight of test compound was added for each treatment that would equal 130% of the desired rate to assure target seed loading. The test compound (the amount as described in Table 3A below) and surfactant (optional) were dissolved in 3 mL acetone. AGRIMER VA-6 inert polymer was added at a concentration of 15% of the total test compound weight. Seeds were placed in the drum of the batch lab treater. The drum was rotated. The solutions of test compositions as described above were pipette onto seeds. The drum continued to rotate until the seed were dry.
3 inch by 3 inch plastic pots were filled with a media consisting of 80% sand and 20% silt loam soil (v/v). Treated cucumber seeds were planted ½ inch below the soil surface. Pots were watered as needed. Five days after planting the cucumber plants had the first true leaf emerging and each pot was inoculated with 1000 vermiform root knot eggs. The cucumber plants were rated for root galling 14 days after inoculation. The gall ratings were scored on a scale of 0-100 where, 0=no galls and 100=completely galled. Percent control was determined by comparison to the blank (untreated).

[5] = 40 ppm, scale 0=0-5%, 1=6-20%, 2=21-50%, 3=51-100% root mass galled

Compound: O=c1oc(-c2ccc(Cl)cc2)nn1-c1cccs1 [Formula IIa-iv, 5-(4-chlorophenyl)-3-(thiophen-2-yl)-1,3,4-oxadiazol-2(3H)-one]
- gall ratings ([1]; 1 ppm, scale 0-3): 3.00
- gall ratings ([1]; 8 ppm, scale 0-3): 1.67
- gall ratings [1, 5]: 1.00

Compound: O=c1oc(-c2cccs2)nn1-c1ccccc1 [Formula Ia-i, 3-phenyl-5-(thiophen-2-yl)-1,3,4-oxadiazol-2(3H)-one]
- gall ratings ([1]; 8 ppm, scale 0-3): 2.00
- gall ratings [1, 5]: 1.00

Compound: O=c1oc(-c2ccco2)nn1-c1ccccc1 [Formula Ia-ii, 5-(furan-2-yl)-3-phenyl-1,3,4-oxadiazol-2(3H)-one]
- gall ratings ([1]; 1 ppm, scale 0-3): 3.00
- gall ratings ([1]; 8 ppm, scale 0-3): 1.33
- gall ratings [1, 5]: 0.00

Compound: O=c1oc(-c2cccs2)nn1-c1ccc(Cl)cc1 [Formula Ia-iii, 3-(4-chlorophenyl)-5-(thiophen-2-yl)-1,3,4-oxadiazol-2(3H)-one]
- Percent Control (root knot nematode (RKN) [2]; application rate 0.1 kg/ha): 63^a Percent
- Percent Control (root knot nematode (RKN) [2]; application rate 0.25 kg/ha): 70^a Percent
- Percent Control ([3]; application rate 0.1 kg/ha): 29^a Percent
- Percent Control ([3]; application rate 0.25 kg/ha): 56^a Percent
- Percent Control (root knot nematode (RKN) [4]; seed treatment 0.1 mg a.i./seed): 12^b Percent
- Percent Control (root knot nematode (RKN) [4]; seed treatment 0.25 mg a.i./seed): 25^b Percent
- Percent Control (root knot nematode (RKN) [4]; seed treatment 0.5 mg a.i./seed): 62^a Percent
- gall ratings ([1]; 1 ppm, scale 0-3): 0.00
- gall ratings ([1]; 8 ppm, scale 0-3): 0.33
- gall ratings [1, 5]: 0.00

Compound: O=c1oc(-c2cccs2)nn1-c1ccc(F)cc1 [Formula Ia-iv, 3-(4-fluorophenyl)-5-(thiophen-2-yl)-1,3,4-oxadiazol-2(3H)-one]
- gall ratings ([1]; 1 ppm, scale 0-3): 3.00
- gall ratings ([1]; 8 ppm, scale 0-3): 2.00
- gall ratings [1, 5]: 1.33

Compound: O=c1oc(-c2ccco2)nn1-c1ccc(Cl)cc1 [Formula Ia-v, 3-(4-chlorophenyl)-5-(furan-2-yl)-1,3,4-oxadiazol-2(3H)-one]
- gall ratings ([1]; 1 ppm, scale 0-3): 1.67
- gall ratings ([1]; 8 ppm, scale 0-3): 1.00
- gall ratings [1, 5]: 0.33

Compound: O=c1oc(-n2cccc2)nn1-c1ccccc1 [Formula Ic-i, 3-phenyl-5-(1H-pyrrol-1-yl)-1,3,4-oxadiazol-2(3H)-one]
- gall ratings ([1]; 8 ppm, scale 0-3): 0.33
- gall ratings [1, 5]: 0.00

Compound: O=c1oc(-n2cccc2)nn1-c1ccc(Cl)cc1 [Formula Ic-ii, 3-(4-chlorophenyl)-5-(1H-pyrrol-1-yl)-1,3,4-oxadiazol-2(3H)-one]
- gall ratings ([1]; 1 ppm, scale 0-3): 2.33
- gall ratings ([1]; 8 ppm, scale 0-3): 1.67
- gall ratings [1, 5]: 1.00

Compound: CNC(=O)O/N=C(\SC)C(=O)N(C)C [Oxamyl, reference compound]
- Percent Control ([3]; application rate 0.1 kg/ha): 59^a Percent
- Percent Control ([3]; application rate 0.25 kg/ha): 79^a Percent

Compound: Abamectin [reference compound]
- Percent Control (root knot nematode (RKN) [4]; seed treatment 0.2 mg a.i./seed): 37^a Percent
- gall ratings ([1]; 1 ppm, scale 0-3): 1.67^b
